Experimental data: the NIST ThermoML archive (doi:10.1016/j.fluid.2010.02.030)
Numbers after ± are expanded uncertainties.

Details: Liquid, Ebulliometric method (Recirculating still)

Structure (SMILES)	vapor or sublimation pressure (383.15 K) [kPa]	vapor or sublimation pressure (387.74 K) [kPa]	vapor or sublimation pressure (400.11 K) [kPa]	vapor or sublimation pressure (408.87 K) [kPa]	vapor or sublimation pressure (416.75 K) [kPa]	vapor or sublimation pressure (422.84 K) [kPa]	vapor or sublimation pressure (428.53 K) [kPa]	vapor or sublimation pressure (433.42 K) [kPa]	vapor or sublimation pressure (437.83 K) [kPa]	vapor or sublimation pressure (442.22 K) [kPa]	vapor or sublimation pressure (328.08 K) [kPa]	vapor or sublimation pressure (336.1 K) [kPa]	vapor or sublimation pressure (343.41 K) [kPa]	vapor or sublimation pressure (350.44 K) [kPa]	vapor or sublimation pressure (355.65 K) [kPa]	vapor or sublimation pressure (360.57 K) [kPa]	vapor or sublimation pressure (364.39 K) [kPa]	vapor or sublimation pressure (368.05 K) [kPa]	vapor or sublimation pressure (371.04 K) [kPa]
Cc1ccc(C)c(C)c1 [1,2,4-trimethylbenzene]	16.9 ± 0.4	20.1 ± 0.4	30.3 ± 0.4	39.8 ± 0.4	50.3 ± 0.4	60 ± 0.4	70.3 ± 0.4	80.3 ± 0.4	90.4 ± 0.4	101.4 ± 0.4	–	–	–	–	–	–	–	–	–
CCCCS [1-butanethiol]	–	–	–	–	–	–	–	–	–	–	23.1 ± 0.4	31.4 ± 0.4	40.9 ± 0.4	52.1 ± 0.4	61.9 ± 0.4	72.6 ± 0.4	81.9 ± 0.4	91.6 ± 0.4	100.5 ± 0.5
